Data published in patent US4517003A, “N-acyl phosphoric triamide urease inhibitors and urease inhibited urea based fertilizer compositions” (Allied Corporation, priority 1983, dated 1985).
Like-named read-outs stand apart in the source and are kept apart here.

Columns and labels:
soil nitrification = experiment: Nitrification inhibition efficacy test in soil; conditions: Cazenovia silt loam pH 7.3, 14 days at 25° C.; for % Inhibition at 40 ug per gram of soil, t14 (Inhibition of Soil Nitrification): diammonium phosphate applied after 14 days (t14); for % Inhibition at 40 ug per gram of soil, t0 (Inhibition of Soil Nitrification): diammonium phosphate applied simultaneously (t0)
Description: Efficacy tests were conducted to evaluate the efficacy of certain representative phosphoric triamide compounds as nitrification inhibitors. All compounds were evaluated in Cazenovia silt loam soil (pH 7.3). The evaluations consisted of applying either simultaneously (to) or after 14 days (t14) a solution of 6.00 mg (300 ug/g soil) of diammonium phosphate in 1 mL of water to triplicate 20 g samples of air dry soil contained in 250 mL square glass bottles that had been treated with a solution of either 0 or 0.800 mg (40 ug/g soil) of the test compound in 5 mL of water. Each bottle was capped with perforated aluminum foil, incubated for 14 days at 25° C. after diammonium phosphate application, and then extracted with 100 mL of 2M potassium chloride containing 0.5 mg (5 mg/L) of phenylmercuric acetate. Each extract was allowed to settle, and an aliquot was frozen and then analyzed for nitrate using an autoanalyzer. The percent inhibition obtained during the incubation was calculated by the formula: [formula] where A is the nitrate recovered from unincubated soil before diammonium phosphate addition; B is nitrate recovered from uninhibited soil; and C is nitrate recovered from inhibited soil.
The compounds selected for use in the composition of this invention are N-(diaminophosphinyl)-2,2,2-trichloroacetamide, N-(diaminophosphinyl)-2,2-dichloroacetamide, and N-(diaminophosphinyl)-2-chloroacetamide.

soil urease = experiment: Urease inhibition efficacy test in soil; assay type: biochemical; conditions: Cazenovia silt loam, pH 7.2, incubated at 25° C. for three days, triplicate
Description: Efficacy tests were conducted to evaluate the efficacy of certain representative phosphoric triamide compounds as urease inhibitors. The inhibition tests were run in a New York soil (Cazenovia silt loam, pH 7.2). […] The bottle was capped with perforated aluminum foil and incubated at 25° C. for three days prior to extraction with 100 mL of a 2M KCl solution containing 0.5 mg of phenylmercuric acetate. The extracts were then analyzed for remaining urea using an autoanalyzer. Percent inhibition was calculated as [formula] Where A is urea recovered from unincubated sample (urea added to soil and immediately extracted); B is urea recovered from inhibited sample; and C is urea recovered from the control (uninhibited sample).

[1] = target: T1, jack bean urease (Sigma, Type IX) (Canavalia ensiformis, UniProt P07374); experiment: Jack bean urease inhibition (modified Bremner procedure, homogeneous solution); assay type: biochemical; conditions: for inhibition at 0.01 µM: read-out: % Inhibition at Specific Inhibitor Concentrations 10^-8 M
T1 construct: purchased Sigma Type IX
T1 sequence (P07374 whole entry, looked up): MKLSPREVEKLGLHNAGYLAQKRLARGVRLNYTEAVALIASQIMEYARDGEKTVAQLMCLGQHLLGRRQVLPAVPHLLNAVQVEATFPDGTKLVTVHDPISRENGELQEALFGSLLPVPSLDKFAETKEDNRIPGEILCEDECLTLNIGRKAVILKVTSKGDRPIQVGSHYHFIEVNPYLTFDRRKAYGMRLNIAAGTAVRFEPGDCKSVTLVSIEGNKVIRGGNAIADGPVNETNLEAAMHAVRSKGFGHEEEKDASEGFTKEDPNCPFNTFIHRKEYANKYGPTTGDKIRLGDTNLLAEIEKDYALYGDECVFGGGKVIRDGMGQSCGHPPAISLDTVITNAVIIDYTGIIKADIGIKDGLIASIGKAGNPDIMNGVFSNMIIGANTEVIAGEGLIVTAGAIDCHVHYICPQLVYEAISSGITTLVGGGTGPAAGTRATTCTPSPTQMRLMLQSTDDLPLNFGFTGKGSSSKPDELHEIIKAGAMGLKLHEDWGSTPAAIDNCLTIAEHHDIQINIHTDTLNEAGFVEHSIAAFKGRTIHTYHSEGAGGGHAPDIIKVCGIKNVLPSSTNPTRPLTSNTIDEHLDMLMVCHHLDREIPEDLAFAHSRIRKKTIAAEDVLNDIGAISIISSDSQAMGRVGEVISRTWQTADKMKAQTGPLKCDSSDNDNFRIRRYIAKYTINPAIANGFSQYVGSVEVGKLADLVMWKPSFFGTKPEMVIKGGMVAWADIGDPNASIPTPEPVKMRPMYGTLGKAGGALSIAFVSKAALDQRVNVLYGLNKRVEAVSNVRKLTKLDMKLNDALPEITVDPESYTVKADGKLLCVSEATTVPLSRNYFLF
Description: Efficacy tests were also conducted with jack bean urease. The procedure of Bremner (see L. A. Douglas and J. M. Bremner, Soil Biol. Biochem., 3, 859-62 (1970) and references therein) was modified by replacing the soil as the source of urease with commercial purified jack bean urease (Sigma, Type IX). The incubation then proceeds in homogeneous solution.
The prior art compound selected for comparative testing was N-(diaminophosphinyl)-p-chlorobenzamide, and the compounds selected for use in the composition of this invention are N-(diaminophosphinyl)-2,2,2-trichloroacetamide, N-(diaminophosphinyl)-2,2-dichloroacetamide, and N-(diaminophosphinyl)-2-chloroacetamide The test procedure employed was identical to that used in Example VII.

[2] = Solubility in ice-cold water (observation during work-up); assay type: physicochemical
Description: The titled compound was prepared in accordance with the procedure of Example I. Using 2-chloroacetamide (7.02 g, 75 mmol), phosphorus pentachloride (15.6 g, 75 mmol) and formic acid (2.9 mL, […]), were reacted to form 16.0 g of N-(dichlorophosphinyl)-2-chloroacetamide, which was reacted with anhydrous ammonia in ether to form N-(diaminophosphinyl)-2-chloroacetamide.

[3] = Table II, 10^-6 M inhibitor, jack bean urease, read-out: % Inhibition at Specific Inhibitor Concentration 10^-6 M
[4] = Table II, 10^-7 M inhibitor, jack bean urease, read-out: % Inhibition at Specific Inhibitor Concentration 10^-7 M
[5] = Table III (comparison with prior art), 10^-6 M inhibitor, jack bean urease, read-out: % Inhibition at Specific Inhibitor Concentrations 10^-6 M
[6] = Table III (comparison with prior art), 10^-7 M inhibitor, jack bean urease, read-out: % Inhibition at Specific Inhibitor Concentrations 10^-7 M

For `NP(N)(=O)NC(=O)C(Cl)Cl` [Example I, N-(Diaminophosphinyl)-2,2-dichloroacetamide], the “% Inhibition at 40 ug per gram of soil, t14 (Inhibition of Soil Nitrification)” value (soil nitrification) was 9%, the “% Inhibition at 40 ug per gram of soil, t0 (Inhibition of Soil Nitrification)” value (soil nitrification) was 18% and the “% Inhibition at 40 ug per gram of soil (Inhibition of Soil Urease)” value (soil urease) was 73%. The inhibition at 1 µM [1, 3] was 100%, the inhibition at 0.1 µM [1, 4] was 80 to 100% and the inhibition at 1 µM [1, 5] was 100%. It also gave an inhibition at 0.1 µM [1, 6] of 100%.
With `NP(N)(=O)NC(=O)CCl` [Example II, N-(Diaminophosphinyl)-2-chloroacetamide] the “% Inhibition at 40 ug per gram of soil, t14 (Inhibition of Soil Nitrification)” value (soil nitrification) was 0%, the “% Inhibition at 40 ug per gram of soil, t0 (Inhibition of Soil Nitrification)” value (soil nitrification) was 2% and the “% Inhibition at 40 ug per gram of soil (Inhibition of Soil Urease)” value (soil urease) was 83%. The Solubility in water [2] was “very soluble even in ice-cold water”, the inhibition at 1 µM [1, 3] was 100% and the inhibition at 0.1 µM [1, 4] was 81%. For the same compound, the inhibition at 1 µM [1, 5] was 100% and the inhibition at 0.1 µM [1, 6] was 50%.
For `NP(N)(=O)NC(=O)C(Cl)(Cl)Cl` [Example III, N-(Diaminophosphinyl)-2,2,2-trichloroacetamide], the “% Inhibition at 40 ug per gram of soil, t14 (Inhibition of Soil Nitrification)” value (soil nitrification) was 3%, the “% Inhibition at 40 ug per gram of soil, t0 (Inhibition of Soil Nitrification)” value (soil nitrification) was 47% and the “% Inhibition at 40 ug per gram of soil (Inhibition of Soil Urease)” value (soil urease) was 64%. The inhibition at 1 µM [1, 3] was 93 to 100%, the inhibition at 0.1 µM [1, 4] was 70% and the inhibition at 0.1 µM [1, 6] was 78%. It also gave an inhibition at 0.01 µM ([1]; Table III (comparison with prior art), 10^-8 M inhibitor, jack bean urease) of 13%.
For `N#CCC(=O)NP(N)(N)=O` [Example V, N-(Diaminophosphinyl)-2-Cyanoacetamide], the inhibition at 1 µM [1, 3] was 56%.
For `NP(N)(=O)NC(=O)C(F)(F)F` [IV, N-(Diaminophosphinyl)-2,2,2-trifluoroacetamide], the “% Inhibition at 40 ug per gram of soil (Inhibition of Soil Urease)” value (soil urease) was 52%, the inhibition at 1 µM [1, 3] was 100% and the inhibition at 0.1 µM [1, 4] was 22%.
In the case of `COc1ccc(C(=O)NP(N)(N)=O)cc1` [N-(Diaminophosphinyl)-4-methoxybenzamide, N-(diaminophosphinyl)-4-methoxybenzamide, reference compound], the “% Inhibition at 40 ug per gram of soil, t14 (Inhibition of Soil Nitrification)” value (soil nitrification) is reported as 13% and the “% Inhibition at 40 ug per gram of soil, t0 (Inhibition of Soil Nitrification)” value (soil nitrification) is reported as 4%.
In the case of `NP(N)(=O)NC(=O)c1ccc(Cl)cc1` [N-(Diaminophosphinyl)-p-chlorobenzamide, N-(diaminophosphinyl)-p-chlorobenzamide, reference compound], the inhibition at 1 µM ([1]; read-out: % Inhibition at Specific Inhibitor Concentrations 10^-6 M) is reported as 83%, the inhibition at 0.1 µM ([1]; read-out: % Inhibition at Specific Inhibitor Concentrations 10^-7 M) is reported as 20% and the inhibition at 0.01 µM [1] is reported as 14%.
